Test results reported in patent US20250195530A1, “POLQ INHIBITORS” (ASTRAZENECA AB, priority 2022, published 2025).
Where two headings read alike, the source gives them in different places.

Tests used:
DLD-1 cells = assay: Inhibition of proliferation, DLD-1 BRCA2 wt control (Cell Titre Glo 3D); assay type: cell-based; conditions: Homo sapiens
Method in brief: (§1)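 Wild-type DLD-1 serves as the control for non-specific toxicity, and BRCA2-null DLD-1 as the homologous-recombination-deficient line. Both grew with compound from 10 μM down to 0.51 nM, re-dosed after 6 days. Luminescent ATP content (CellTiter-Glo 3D) was read after 7 or 12 days, respectively, to give IC50 values.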

DLD-1 BRCA2−/− cells = assay: Homologous recombination synthetic lethal inhibition of proliferation, DLD-1 BRCA2-/- (Cell Titre Glo 3D); assay type: cell-based; conditions: Homo sapiens
Method in brief: as §1

[1] = DLD-1, 168 h, DLD-1 BRCA2 wt cells, 7 days, read-out: POLQ PD Prolif Lumin DLD1 mean pIC50 (converted)
[2] = DLD-1, 288 h, DLD-1 BRCA2−/− cells, 12 days, read-out: POLQ PD Prolif Lumin BRCA2 −/− mean pIC50 (converted)
[3] = DLD-1, second proliferation column (c6), DLD-1 BRCA2 wt control, read-out: POLQ PD Prolif Lumin (converted)
[4] = DLD-1, first proliferation column (c5), DLD-1 BRCA2-/-, read-out: POLQ PD Prolif Lumin (converted)
[5] = DLD-1, DLD-1 BRCA2 wt control proliferation, column head only partly shown, read-out: POLQ PD Prolif Lumin (converted)
[6] = DLD-1, DLD-1 BRCA2-/- proliferation, column head only partly shown, read-out: POLQ PD Prolif Lumin (converted)
[7] = DLD-1, DLD1 BRCA2 wt cells, mean, read-out: POLQ PD Prolif Lumin DLD1 mean PIC50 (converted)
[8] = DLD-1, DLD-1 BRCA2 −/− cells, mean, read-out: POLQ PD Prolif Lumin BRCA2 −/− mean pIC50 (converted)

Compound	IC50 (DLD-1 cells; [1])	IC50 (DLD-1 BRCA2−/− cells; [2])	also measured
CC(=O)N1CCN(CCOc2ccc(-c3nc4c(OC(C)C)ncnc4n3Cc3ccccc3)c(C)c2)CC1 [Example B4, 1-(4-(2-(4-(9-benzyl-6-isopropoxy-9H-purin-8-yl)-3-methyl-phenoxy)ethyl)piperazin-1-yl)ethan-1-one]	> 10 µM	0.794 µM	
Cc1ccnc(Cn2c(-c3ccc(CC(=O)N4CCNCC4)cc3Cl)nc3c(OC4(C)CC4)ncnc32)c1 [Example T495, 2-(3-chloro-4-(6-(1-methylcyclopropoxy)-9-((4-methylpyridin-2-yl)methyl)-9H-purin-8-yl)phenyl)-1-(piperazin-1-yl)ethan-1-one]			IC50 (DLD-1 cells; [3]): > 10 µM; IC50 (DLD-1 BRCA2−/− cells; [4]): 0.794 µM
Cc1ccnc(Cn2c(-c3ccc(C(=O)NCC(C)(C)O)cc3Cl)nc3c(OC4(C)CC4)ncnc32)c1 [Example T363, 3-chloro-N-(2-hydroxy-2-methylpropyl)-4-(6-(1-methylcyclopropoxy)-9-((4-methylpyridin-2-yl)methyl)-9H-purin-8-yl)benzamide]			IC50 (DLD-1 cells; DLD-1, second proliferation column (c6), taken as DLD-1 BRCA2 wt, read-out: POLQ PD Prolif Lumin (converted)): > 10 µM; IC50 (DLD-1 BRCA2−/− cells; DLD-1, first proliferation column (c5), taken as DLD-1 BRCA2-/-, read-out: POLQ PD Prolif Lumin (converted)): 0.794 µM
CC(CCOc1ccc(-c2nc3c(OC4(C)CC4)ncnc3n2Cc2c(F)c(F)c(F)c(F)c2F)c(Cl)c1)C(=O)O (racemic) [Example T251, 4-(3-chloro-4-(6-(1-methylcyclopropoxy)-9-((perfluorophenyl)methyl)-9H-purin-8-yl)phenoxy)-2-methylbutanoic acid]			IC50 (DLD-1 cells; [5]): > 10 µM; IC50 (DLD-1 BRCA2−/− cells; [6]): 2 µM
Cc1cc(OCCN2CCN(C)CC2)ncc1-c1nc2cc(OC(C)C)ccc2n1Cc1cccc(Cl)c1 [Example A7, 1-(3-chlorobenzyl)-5-isopropoxy-2-(4-methyl-6-(2-(4-methylpiperazin-1-yl)ethoxy)pyridin-3-yl)-1H-benzo[d]imidazole]	1.58 µM	0.251 µM	
CC1(Oc2ncnc3c2nc(-c2ccc(OCCN4CCNCC4)cc2Cl)n3Cc2ncsc2Cl)CC1 [Example T145, 5-chloro-4-((8-(2-chloro-4-(2-(piperazin-1-yl)ethoxy)phenyl)-6-(1-methylcyclopropoxy)-9H-purin-9-yl)methyl)thiazole]			IC50 (DLD-1 cells; [3]): > 10 µM; IC50 (DLD-1 BRCA2−/− cells; [4]): 2 µM
Cc1ccnc(Cn2c(-c3ccc(C(=O)O)cc3Cl)nc3c(OC4(C)CC4)ncnc32)c1 [Example T13, 3-chloro-4-(6-(1-methylcyclopropoxy)-9-((4-methylpyridin-2-yl)methyl)-9H-purin-8-yl)benzoic acid]			IC50 (DLD-1 cells; [7]): > 10 µM; IC50 (DLD-1 BRCA2−/− cells; [8]): > 10 µM
CC1(Oc2ncnc3c2nc(-c2ccc(N4CCNC(=O)C4)cc2Cl)n3Cc2ccccc2)CC1 [Example M3, 4-(4-(9-benzyl-6-(1-methylcyclopropoxy)-9H-purin-8-yl)-3-chlorophenyl)piperazin-2-one]	7.94 µM	0.501 µM	
CC1(Oc2ncnc3c2nc(-c2ccc(OCCCN4CC[C@@H](O)C4)cc2Cl)n3Cc2cc(C(F)F)ccn2)CC1 [Example T568, (R)-1-(3-(3-chloro-4-(9-((4-(difluoromethyl)pyridin-2-yl)methyl)-6-(1-methylcyclopropoxy)-9H-purin-8-yl)phenoxy)propyl)pyrrolidin-3-ol]			IC50 (DLD-1 cells; [3]): > 10 µM; IC50 (DLD-1 BRCA2−/− cells; [4]): 0.794 µM
Cc1ccnc(Cn2c(-c3ccc(C(N)=O)cc3Cl)nc3c(OC4(C)CC4)ncnc32)c1 [Example T14, 3-chloro-4-(6-(1-methylcyclopropoxy)-9-((4-methylpyridin-2-yl)methyl)-9H-purin-8-yl)benzamide]			IC50 (DLD-1 cells; [7]): > 10 µM; IC50 (DLD-1 BRCA2−/− cells; [8]): 0.501 µM
CN(C)C(=O)COc1ccc(-c2nc3c(OC4(C)CC4)ncnc3n2Cc2ccccc2)c(Cl)c1 [Example D20, 2-(4-(9-benzyl-6-(1-methylcyclopropoxy)-9H-purin-8-yl)-3-chlorophenoxy)-N,N-dimethylacetamide]	> 10 µM	0.2 µM	
CC1(Oc2ncnc3c2nc(-c2ccc(OCCCN4CC(O)C4)cc2Cl)n3Cc2cc(C(F)F)ccn2)CC1 [Example T452, 1-(3-(3-chloro-4-(9-((4-(difluoromethyl)pyridin-2-yl)methyl)-6-(1-methylcyclopropoxy)-9H-purin-8-yl)phenoxy)propyl)azetidin-3-ol]			IC50 (DLD-1 cells; DLD-1, proliferation, luminescence, second Prolif column (c6), taken as DLD-1 BRCA2 wt control, read-out: POLQ PD Prolif Lumin (converted)): > 10 µM; IC50 (DLD-1 BRCA2−/− cells; DLD-1, proliferation, luminescence, taken as DLD-1 BRCA2-/-, read-out: POLQ PD Prolif Lumin (converted)): 0.794 µM
CC1(Oc2ncnc3c2nc(-c2ccc(OCCN4C5CNCC4C5)cc2Cl)n3Cc2ccccc2)CC1 [Example R15, 6-(2-(4-(9-benzyl-6-(1-methylcyclopropoxy)-9H-purin-8-yl)-3-chlorophenoxy)ethyl)-3,6-diazabicyclo[3.1.1]heptane]	5.01 µM	0.501 µM	
CC(C)Oc1ncnc2c1nc(-c1ccc(OCCN3CCN(C)CC3)cc1)n2Cc1ccccc1 [Example B1, 9-benzyl-6-isopropoxy-8-(4-(2-(4-methyl-piperazin-1-yl)ethoxy)phenyl)-9H-purine]	7.94 µM	1 µM	
CC1(Oc2ncnc3c2nc(-c2ccc(N4CCNCC4)cc2Cl)n3Cc2ccccc2)CC1 [Example C7, 9-benzyl-8-(2-chloro-4-(piperazin-1-yl)phenyl)-6-(1-methylcyclopropoxy)-9H-purine]	6.31 µM	0.251 µM	
Cc1ccnc(Cn2c(-c3ccc(OC[C@H](C)O)cc3Cl)nc3c(OC4(C)CC4)ncnc32)c1 [Example 36, (S)-1-(3-Chloro-4-(6-(1-methylcyclopropoxy)-9-((4-methylpyridin-2-yl)methyl)-9H-purin-8-yl)phenoxy)propan-2-ol]			IC50 (DLD-1 cells; DLD-1, 168 h, DLD-1 (BRCA2 wt control), 7 days, Cell Titre Glo 3D, read-out: POLQ PD Prolif Lumin DLD1 Mean pIC50 (converted)): > 10 µM; IC50 (DLD-1 BRCA2−/− cells; DLD-1, 288 h, DLD-1 BRCA2−/−, 12 days, Cell Titre Glo 3D, read-out: POLQ PD Prolif Lumin BRCA2 −/− Mean pIC50 (converted)): 0.251 µM
CC(CCOc1cccc(-c2nc3c(OC4(C)CC4)ncnc3n2Cc2cccc(Cl)c2)c1Cl)C(=O)O (racemic) [Example T293, 4-(2-chloro-3-(9-(3-chlorobenzyl)-6-(1-methylcyclopropoxy)-9H-purin-8-yl)phenoxy)-2-methylbutanoic acid]			IC50 (DLD-1 cells; [5]): > 3.16 µM; IC50 (DLD-1 BRCA2−/− cells; [6]): 0.0316 µM
CC1(Oc2ncnc3c2nc(-c2ccc(OCCN4CCNCC4)cc2Cl)n3Cc2nnco2)CC1 [Example T76, 2-((8-(2-chloro-4-(2-(piperazin-1-yl)ethoxy)phenyl)-6-(1-methylcyclopropoxy)-9H-purin-9-yl)methyl)-1,3,4-oxadiazole]			IC50 (DLD-1 cells; [7]): > 3.16 µM; IC50 (DLD-1 BRCA2−/− cells; [8]): > 10 µM
Cc1cnc(Cn2c(-c3ccc(OCCN4CCNCC4)cc3Cl)nc3c(OC4(C)CC4)ncnc32)s1 [Example L3, 2-((8-(2-chloro-4-(2-(piperazin-1-yl)ethoxy)phenyl)-6-(1-methylcyclopropoxy)-9H-purin-9-yl)methyl)-5-methylthiazole]	> 10 µM	0.398 µM	
CC1(Oc2ncnc3c2nc(-c2ccc(OCCN4CC5CCC(C4)N5)cc2Cl)n3Cc2ccccc2)CC1 [Example R4, 8-(4-(2-(3,8-diazabicyclo[3.2.1]octan-3-yl)ethoxy)-2-chlorophenyl)-9-benzyl-6-(1-methylcyclopropoxy)-9H-purine]	3.16 µM	0.126 µM	

Continued, in another order:

IC50 (DLD-1 cells; [1])	Compound	IC50 (DLD-1 BRCA2−/− cells; [2])	also measured
3.16 µM	CC1(Oc2ncnc3c2nc(-c2ccc(OCCN4CCC[C@@H](O)C4)cc2Cl)n3Cc2ccccc2)CC1 [Example R7, (R)-1-(2-(4-(9-benzyl-6-(1-methylcyclopropoxy)-9H-purin-8-yl)-3-chlorophenoxy)ethyl)piperidin-3-ol]	0.0631 µM	
6.31 µM	N#CC1(Oc2ncnc3c2nc(-c2ccc(OCCN4CCNCC4)cc2Cl)n3Cc2cccc(Cl)c2)CC1 [Example Q5, 1-((8-(2-chloro-4-(2-(piperazin-1-yl)ethoxy)phenyl)-9-(3-chlorobenzyl)-9H-purin-6-yl)oxy)cyclopropane-1-carbonitrile]	0.158 µM	
